Data from patent publication US8119669B2, “Substituted phenoxy N-alkylated thiazolidinediones as estrogen related receptor-α modulators” (Janssen Pharmaceutica N.V., priority 2007, dated 2012).

Molecular target: T1, ERR1 (also known as ERR-α or ERR-1) (Homo sapiens, UniProt P11474)
T1 sequence (P11474 193-421 limits assumed): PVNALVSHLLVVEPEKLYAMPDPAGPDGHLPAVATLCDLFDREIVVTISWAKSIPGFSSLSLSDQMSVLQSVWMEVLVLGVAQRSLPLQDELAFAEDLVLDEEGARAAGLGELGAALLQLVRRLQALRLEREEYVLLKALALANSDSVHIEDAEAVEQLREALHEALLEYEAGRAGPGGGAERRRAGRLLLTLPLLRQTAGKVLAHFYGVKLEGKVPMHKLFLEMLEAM
Test: TR-FRET Assay (disruption of co-activator peptide binding to ERR1 LBD)
Type: biochemical
Conditions: 6His-tagged ERR1 LBD 6 nM, GST-hSRC2 co-activator peptide 6 nM; 25° C., 4-18 hours; average of 3 independent experiments
Method: Time-Resolved Fluorescence Resonance Energy Transfer (TR-FRET) experiments were performed to examine the functional response of ERR1 (also known as ERR-α or ERR-1) ligands. The TR-FRET assay described herein relied on the conformation of ERR1 for binding to a co-activator peptide: when a test compound binds to ERR1 and alters its conformation, it can disrupt the binding of the co-activator peptide. The components of this homogeneous secondary assay included: the ^6His-tagged-ERR1LBD, a GST-labeled-hSRC2 co-activator polypeptide and a fluorescent donor/acceptor pair from CIS bio international htrf/bioassays (Bedford, Mass.) using both an α-GST Europium Cryptate (Eu) label and an α^6His-XL665 (allophycocyanin) fluorophore.
For TR-FRET measurements, the reaction was buffered in 25 mM Tris pH 8, 2.5 mM Hepes, 20 mM KCl, 1 mM DTT, and 0.05 mg/mL BSA (-lipids). The final concentrations of reagents were 6 nM of ERR1LBD, 6 nM GST-SRC-2 peptide, 30 nM Eu cryptate, and 7.5 nM XL665. Reactions were allowed to reach equilibrium at 25° C. for 4-18 hours before collecting data on the Analyst from LJL Biosystems (Molecular Devices Sunnyvale, Calif.). As a time-resolved method, the samples were excited at […] and emission was collected for 1 ms at both 615 and 665 nm with delays of 400 and 75 μs, respectively. Dose response curves were fitted using a hyperbolic equation and the data reported is the average of 3 independent experiments.

Row | SMILES | EC50 [nM]
1 | COc1cc(/C=C2\SC(=O)N(CCn3cccc3)C2=O)ccc1Oc1ccc(C#N)cc1C(F)(F)F [Compound 13, 4-{4-[2,4-Dioxo-3-(2-pyrrol-1-yl-ethyl)-thiazolidin-5-ylidenemethyl]-2-methoxy-phenoxy}-3-trifluoromethyl-benzonitrile] | 86
2 | CCN(CC)CCN1C(=O)S/C(=C\c2ccc(Oc3ccc(C#N)cc3C(F)(F)F)c(OC)c2)C1=O [Compound 7, 4-{4-[3-(2-Diethylamino-ethyl)-2,4-dioxo-thiazolidin-5-ylidenemethyl]-2-methoxy-phenoxy}-3-trifluoromethyl-benzonitrile] | 59
3 | COc1cc(/C=C2\SC(=O)N(CCN(C)C)C2=O)ccc1Oc1ccc(C#N)cc1C(F)(F)F [Compound 2, 4-{4-[3-(2-Dimethylamino-ethyl)-2,4-dioxo-thiazolidin-5-ylidenemethyl]-2-methoxy-phenoxy}-3-trifluoromethyl-benzonitrile] | 39
4 | COc1cc(/C=C2\SC(=O)N(CCN3CCCCCC3)C2=O)ccc1Oc1ccc(C#N)cc1C(F)(F)F [Compound 12, 4-{4-[3-(2-Azepan-1-yl-ethyl)-2,4-dioxo-thiazolidin-5-ylidenemethyl]-2-methoxy-phenoxy}-3-trifluoromethyl-benzonitrile] | 44
5 | N#Cc1ccc(Oc2ccc(/C=C3\SC(=O)N(CCN4CCCC4)C3=O)cc2F)c(C(F)(F)F)c1 [Compound 14, 4-{4-[2,4-Dioxo-3-(2-pyrrolidin-1-yl-ethyl)-thiazolidin-5-ylidenemethyl]-2-fluoro-phenoxy}-3-trifluoromethyl-benzonitrile] | 230
6 | N#Cc1ccc(Oc2ccc(/C=C3\SC(=O)N(CCN4CCOCC4)C3=O)cc2F)c(C(F)(F)F)c1 [Compound 6, 4-{2-Fluoro-4-[3-(2-morpholin-4-yl-ethyl)-2,4-dioxo-thiazolidin-5-ylidenemethyl]-phenoxy}-3-trifluoromethyl-benzonitrile] | 320
7 | COc1cc(/C=C2\SC(=O)N(CCn3cncn3)C2=O)ccc1Oc1ccc(C#N)cc1C(F)(F)F [Compound 11, 4-{4-[2,4-Dioxo-3-(2-[1,2,4]triazol-1-yl-ethyl)-thiazolidin-5-ylidenemethyl]-2-methoxy-phenoxy}-3-trifluoromethyl-benzonitrile] | 24
8 | COc1cc(/C=C2\SC(=O)N(CCN3CCN(C)CC3)C2=O)ccc1Oc1ccc(C#N)cc1C(F)(F)F [Compound 4, 4-(2-Methoxy-4-{3-[2-(4-methyl-piperazin-1-yl)-ethyl]-2,4-dioxo-thiazolidin-5-ylidenemethyl}-phenoxy)-3-trifluoromethyl-benzonitrile] | 320
9 | COc1cc(/C=C2\SC(=O)N(CCN3CCCC3)C2=O)ccc1Oc1ccc(C#N)cc1C(F)(F)F [Compound 3, 4-{4-[2,4-Dioxo-3-(2-pyrrolidin-1-yl-ethyl)-thiazolidin-5-ylidenemethyl]-2-methoxy-phenoxy}-3-trifluoromethyl-benzonitrile] | 42
10 | COc1cc(/C=C2\SC(=O)N(CCn3cccn3)C2=O)ccc1Oc1ccc(C#N)cc1C(F)(F)F [Compound 10, 4-{4-[2,4-Dioxo-3-(2-pyrazol-1-yl-ethyl)-thiazolidin-5-ylidenemethyl]-2-methoxy-phenoxy}-3-trifluoromethyl-benzonitrile] | 59
11 | COc1cc(/C=C2\SC(=O)N(CCN3CCOCC3)C2=O)ccc1Oc1ccc(C#N)cc1C(F)(F)F [Compound 1, 4-{2-Methoxy-4-[3-(2-morpholin-4-yl-ethyl)-2,4-dioxo-thiazolidin-5-ylidenemethyl]-phenoxy}-3-trifluoromethyl-benzonitrile] | 20
12 | COc1cc(/C=C2\SC(=O)N(CCN3CCCCC3)C2=O)ccc1Oc1ccc(C#N)cc1C(F)(F)F [Compound 9, 4-{4-[2,4-Dioxo-3-(2-piperidin-1-yl-ethyl)-thiazolidin-5-ylidenemethyl]-2-methoxy-phenoxy}-3-trifluoromethyl-benzonitrile] | 33
13 | CN(C)CCN1C(=O)S/C(=C\c2ccc(Oc3ccc(C#N)cc3C(F)(F)F)c(F)c2)C1=O [Compound 5, 4-{4-[3-(2-Dimethylamino-ethyl)-2,4-dioxo-thiazolidin-5-ylidenemethyl]-2-fluoro-phenoxy}-3-trifluoromethyl-benzonitrile] | 360
14 | COc1cc(/C=C2\SC(=O)N(CCn3ccnc3)C2=O)ccc1Oc1ccc(C#N)cc1C(F)(F)F [Compound 8, 4-{4-[3-(2-Imidazol-1-yl-ethyl)-2,4-dioxo-thiazolidin-5-ylidenemethyl]-2-methoxy-phenoxy}-3-trifluoromethyl-benzonitrile] | 32
